PubChem BioAssay AID330 (DTP/NCI, 2004)
Where “and” joins values, the source holds several entries; their conditions need not be identical. Identical values can stand only once. Inconclusive results and toxic doses are left out. Peptide text beside a SMILES is read from it. * marks the point of attachment. Boc = CC(C)(C)OC(=O)*; NHNH2 = NN*

Tested on: P388 leukemia ip, CD2F1 mice, survival T/C
Assay: NCI In Vivo Anticancer Drug Screen. Data for tumor model P388 Leukemia (intraperitoneal) in CD2F1 (CDF1) mice
Details: endpoint: median survival time, higher = longer survival
Method in brief: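 Mice carrying the transplanted tumor received test compound or vehicle. Survival was recorded in each group, and the value is the treated-group measurement divided by that of the vehicle-treated control group.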

[1] = dose: 60.0 mg/kg/injection, schedule: Q01DX005 (ip), vehicle: saline with Tween-80
[2] = dose: 120.0 mg/kg/injection, schedule: Q01DX005 (ip), vehicle: saline with Tween-80
[3] = dose: 240.0 mg/kg/injection, schedule: Q01DX005 (ip), vehicle: saline with Tween-80
[4] = dose: 50.0 mg/kg/injection, schedule: Q01DX009 (ip), vehicle: saline with Tween-80
[5] = dose: 100.0 mg/kg/injection, schedule: Q01DX009 (ip), vehicle: saline with Tween-80
[6] = dose: 200.0 mg/kg/injection, schedule: Q01DX009 (ip), vehicle: saline with Tween-80
[7] = dose: 25.0 mg/kg/injection, schedule: Q01DX009 (ip), vehicle: saline with Tween-80
[8] = dose: 100.0 mg/kg/injection, schedule: Q04DX003 (ip), vehicle: saline with Tween-80
[9] = dose: 200.0 mg/kg/injection, schedule: Q04DX003 (ip), vehicle: saline with Tween-80
[10] = dose: 400.0 mg/kg/injection, schedule: Q04DX003 (ip), vehicle: saline with Tween-80
[11] = dose: 60.0 mg/kg/injection, schedule: Q01DX005 (ip), vehicle: Klucel (hydroxypropylcellulose) (HPC)
[12] = dose: 120.0 mg/kg/injection, schedule: Q01DX005 (ip), vehicle: Klucel (hydroxypropylcellulose) (HPC)
[13] = dose: 240.0 mg/kg/injection, schedule: Q01DX005 (ip), vehicle: Klucel (hydroxypropylcellulose) (HPC)
[14] = dose: 50.0 mg/kg/injection, schedule: Q01DX001 (ip), vehicle: Klucel (hydroxypropylcellulose) (HPC)
[15] = dose: 100.0 mg/kg/injection, schedule: Q01DX001 (ip), vehicle: Klucel (hydroxypropylcellulose) (HPC)
[16] = dose: 200.0 mg/kg/injection, schedule: Q01DX001 (ip), vehicle: Klucel (hydroxypropylcellulose) (HPC)
[17] = dose: 50.0 mg/kg/injection, schedule: Q01DX009 (ip), vehicle: Klucel (hydroxypropylcellulose) (HPC)
[18] = dose: 100.0 mg/kg/injection, schedule: Q01DX009 (ip), vehicle: Klucel (hydroxypropylcellulose) (HPC)
[19] = dose: 200.0 mg/kg/injection, schedule: Q01DX009 (ip), vehicle: Klucel (hydroxypropylcellulose) (HPC)

## COc1cc(OC)c(C(=O)C(CN(C)C)CN(C)C)cc1OC
dose: 1.87 mg/kg/injection, schedule: Q01DX005 (ip), vehicle: saline
  T/C: 113 % of control
dose: 3.75 mg/kg/injection, schedule: Q01DX005 (ip), vehicle: other
  T/C: 113 % of control
dose: 3.75 mg/kg/injection, schedule: Q01DX005 (ip), vehicle: saline
  T/C: 107 % of control
dose: 7.5 mg/kg/injection, schedule: Q01DX005 (ip), vehicle: other
  T/C: 108 % of control
dose: 7.5 mg/kg/injection, schedule: Q01DX005 (ip), vehicle: saline
  T/C: 106 % of control
dose: 15.0 mg/kg/injection, schedule: Q01DX005 (ip), vehicle: saline
  T/C: 107 % of control
dose: 120.0 mg/kg/injection, schedule: Q01DX005 (ip), vehicle: saline
  T/C: 124 % of control

## Cc1cc(Cl)cc2[s+]snc12
[1]
  T/C: 100 % of control
[2]
  T/C: 101 % of control
[3]
  T/C: 92 % of control

## Cc1cc(N(CCCl)CCCl)ccc1N=Nc1cccc2ccccc12
[4]
  T/C: 105 % of control
[5]
  T/C: 115 % of control
[6]
  T/C: 123 % of control

## O=C(Nc1ccccc1)/C(N=Nc1ccccc1Cl)=N\Nc1cc(S(=O)(=O)O)ccc1Cl
dose: 50.0 mg/kg/injection, schedule: Q01DX005 (ip), vehicle: Klucel (hydroxypropylcellulose) (HPC)
  T/C: 103 % of control
dose: 100.0 mg/kg/injection, schedule: Q01DX005 (ip), vehicle: Klucel (hydroxypropylcellulose) (HPC)
  T/C: 102 % of control
dose: 200.0 mg/kg/injection, schedule: Q01DX005 (ip), vehicle: Klucel (hydroxypropylcellulose) (HPC)
  T/C: 107 % of control

## COc1ccccc1CNCCCCCCNCCSSCCNCCCCCCNCc1ccccc1OC
dose: 12.5 mg/kg/injection, schedule: Q04DX002 (ip), vehicle: suspension in saline
  T/C: 102 % of control
dose: 25.0 mg/kg/injection, schedule: Q04DX002 (ip), vehicle: suspension in saline
  T/C: 97 % of control

## c1ccc2c(c1)cc1c3nncn3ncn21
dose: 12.5 mg/kg/injection, schedule: Q01DX009 (ip), vehicle: saline with Tween-80
  T/C: 100 % of control
[7]
  T/C: 92 % of control
[4]
  T/C: 93 % of control

## CN(C)[C@@H]1C(=O)C(C(=O)NCN(CCCl)CCCl)=C(O)[C@@]2(O)C(=O)C3=C(O)c4c(O)cccc4[C@@](C)(O)[C@H]3C[C@@H]12
dose: 33.0 mg/kg/injection, schedule: Q04DX003 (ip), vehicle: saline with Tween-80
  T/C: 159 % of control
dose: 44.0 mg/kg/injection, schedule: Q04DX003 (ip), vehicle: saline
  T/C: 154 % of control
dose: 50.0 mg/kg/injection, schedule: Q04DX003 (ip), vehicle: saline with Tween-80
  T/C: 158 % of control and 172 % of control
dose: 66.0 mg/kg/injection, schedule: Q04DX003 (ip), vehicle: saline
  T/C: 181 % of control
dose: 75.0 mg/kg/injection, schedule: Q04DX003 (ip), vehicle: saline with Tween-80
  T/C: 168 % of control
[8]
  T/C: 100 % of control
dose: 100.0 mg/kg/injection, schedule: Q04DX003 (ip), vehicle: saline
  T/C: 209 % of control

## CC1=C2CCCCCC2(O)OC1=O (configuration not stated)
dose: 6.25 mg/kg/injection, schedule: Q01DX001 (ip), vehicle: saline
  T/C: 109 % of control
dose: 12.5 mg/kg/injection, schedule: Q01DX001 (ip), vehicle: saline
  T/C: 111 % of control
dose: 25.0 mg/kg/injection, schedule: Q01DX001 (ip), vehicle: saline
  T/C: 104 % of control and 117 % of control
dose: 50.0 mg/kg/injection, schedule: Q01DX001 (ip), vehicle: saline
  T/C: 120 % of control
dose: 100.0 mg/kg/injection, schedule: Q01DX001 (ip), vehicle: saline
  T/C: 100 % of control

## [O-]c1n[n+](Cc2ccc(Cl)cc2)no1
dose: 100.0 mg/kg/injection, schedule: Q04DX003 (ip), vehicle: Klucel (hydroxypropylcellulose) (HPC)
  T/C: 102 % of control
dose: 200.0 mg/kg/injection, schedule: Q04DX003 (ip), vehicle: Klucel (hydroxypropylcellulose) (HPC)
  T/C: 119 % of control

## S=C(c1c(Cl)cccc1Cl)N1CN2CCCN(C2)C1
[4]
  T/C: 111 % of control
[5]
  T/C: 98 % of control
[6]
  T/C: 101 % of control

## O=C(Nc1nc2cc(Cl)ccc2o1)c1ccc(C(=O)Nc2nc3cc(Cl)ccc3o2)cc1
[8]
  T/C: 108 % of control
[9]
  T/C: 94 % of control
[10]
  T/C: 99 % of control

## O=C(O)c1ccc(/C=C2\COc3ccccc3C2=O)cc1
[1]
  T/C: 103 % of control
[2]
  T/C: 112 % of control
[3]
  T/C: 112 % of control

## O=C1NC2(CCCCC2)C(=O)N1CO
dose: 25.0 mg/kg/injection, schedule: Q01DX005 (ip), vehicle: saline with Tween-80
  T/C: 101 % of control and 109 % of control
dose: 50.0 mg/kg/injection, schedule: Q01DX005 (ip), vehicle: saline with Tween-80
  T/C: 100 % of control and 101 % of control
dose: 100.0 mg/kg/injection, schedule: Q01DX005 (ip), vehicle: saline with Tween-80
  T/C: 103 % of control and 108 % of control
dose: 200.0 mg/kg/injection, schedule: Q01DX005 (ip), vehicle: saline with Tween-80
  T/C: 116 % of control

## CC1(C)OC(=O)N=C1c1ccccc1Cl
[11]
  T/C: 108 % of control
[12]
  T/C: 104 % of control
[13]
  T/C: 108 % of control

## NC(CCC(=O)O)C(=O)NC(Cc1c[nH]c2ccccc12)C(=O)NC(CCC(=O)O)C(=O)O (stereo not drawn) (H-Glu-Trp-Glu-OH; configuration not given here)
dose: 50.0 mg/kg/injection, schedule: Q01DX005 (ip), vehicle: saline
  T/C: 93 % of control
dose: 100.0 mg/kg/injection, schedule: Q01DX005 (ip), vehicle: saline
  T/C: 104 % of control
dose: 200.0 mg/kg/injection, schedule: Q01DX005 (ip), vehicle: saline
  T/C: 105 % of control

## C(=C\c1ccnnc1)/c1ccccc1
dose: 50.0 mg/kg/injection, schedule: Q01DX009 (ip), vehicle: saline
  T/C: 97 % of control
dose: 100.0 mg/kg/injection, schedule: Q01DX009 (ip), vehicle: saline
  T/C: 106 % of control
dose: 200.0 mg/kg/injection, schedule: Q01DX009 (ip), vehicle: saline
  T/C: 101 % of control

## Cc1ncc(C(N)=S)c(N)n1
[4]
  T/C: 103 % of control
[5]
  T/C: 108 % of control
[6]
  T/C: 105 % of control

## CC(C)(C)SC(=S)SCC(=O)c1ccc(F)cc1
[1]
  T/C: 102 % of control
[2]
  T/C: 103 % of control
[3]
  T/C: 102 % of control

## CCOC(=O)N1C=CC2(C=C1)CCCC2
[14]
  T/C: 108 % of control
[15]
  T/C: 102 % of control
[16]
  T/C: 102 % of control

## CSCCC(NC(=O)C(Cc1c[nH]c2ccccc12)NC(=O)OC(C)(C)C)C(=O)NN (stereo not drawn) (Boc-Trp-Met-NHNH2; configuration not given here)
[17]
  T/C: 104 % of control and 105 % of control
[18]
  T/C: 118 % of control
[19]
  T/C: 119 % of control

## Clc1cccc(Cl)c1C(Cl)Cl
[8]
  T/C: 95 % of control
[9]
  T/C: 109 % of control
[10]
  T/C: 100 % of control

## COC1(OC)C(c2ccccc2)C(C#N)(C#N)C1(OC)OC (configuration not stated)
[11]
  T/C: 102 % of control
[12]
  T/C: 100 % of control
[13]
  T/C: 99 % of control

## COC(=O)C1=C(OC(C)=O)c2ccccc2CS1
[14]
  T/C: 98 % of control
[15]
  T/C: 92 % of control
[16]
  T/C: 96 % of control

## O=C1CCCCCC1Cc1cc(O)c(CC2CCCCCC2=O)cc1O (configuration not stated)
[7]
  T/C: 96 % of control
[4]
  T/C: 93 % of control
[5]
  T/C: 98 % of control
[6]
  T/C: 94 % of control

## CC(=O)N(C)N(Cc1ccc(C#N)cc1)C(C)=O
dose: 25.0 mg/kg/injection, schedule: Q01DX009 (ip), vehicle: Klucel (hydroxypropylcellulose) (HPC)
  T/C: 101 % of control
[17]
  T/C: 98 % of control
[18]
  T/C: 99 % of control
[19]
  T/C: 108 % of control
dose: 400.0 mg/kg/injection, schedule: Q01DX009 (ip), vehicle: Klucel (hydroxypropylcellulose) (HPC)
  T/C: 98 % of control
